This is an account of results in patent publication US9115101B2 (Genentech, Inc., priority 2012, dated 2015).

One experiment deals with T1, RORc ligand binding domain (Homo sapiens, UniProt P51449).
T1 construct: host or cells: E. coli
T1 sequence (P51449 269-508 limits assumed): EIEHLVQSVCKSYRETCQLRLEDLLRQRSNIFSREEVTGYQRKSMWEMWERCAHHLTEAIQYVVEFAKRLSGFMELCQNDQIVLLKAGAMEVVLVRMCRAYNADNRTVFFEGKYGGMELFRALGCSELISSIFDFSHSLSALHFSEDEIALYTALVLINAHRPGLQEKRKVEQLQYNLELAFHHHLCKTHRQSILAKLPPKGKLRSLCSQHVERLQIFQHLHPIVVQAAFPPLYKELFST
Briefly: In Vitro RORc Ligand Binding Assay (25-[3H]hydroxycholesterol radioligand filtration). To be noted: In Vitro RORc Ligand Binding Assay; Table 4; read-out: RORc IC50.
On to `C[C@H]1CCC(c2ccccc2)S(=O)(=O)N1Cc1ccc(N2CCC3(COC3)C2)cc1F` (single isomer, unassigned) [Example 107], for which the IC50 worked out at 20 nM.
Still for that read-out and setting: then `C[C@H]1CCC(c2ccccc2)S(=O)(=O)N1Cc1ccc(N2CCN(C(=O)CC#N)CC2)cc1F` (single isomer, unassigned) [Example 69], with 103 nM; and `C[C@H]1CCC(c2ccccc2)S(=O)(=O)N1Cc1ccc(N2CCC(S(=O)(=O)N(C)C)CC2)cc1F` (single isomer, unassigned) [Example 109], with 34 nM; and `CC(=O)N1CCN(c2ccc(CN3[C@@H](C)CCC(c4cccc(Cl)c4)S3(=O)=O)c(F)c2)CC1` (single isomer, unassigned) [Example 185], with 25 nM.
For the compound `O=S1(=O)C(c2ccccc2)CC2(CC2)CN1Cc1ccc(N2CCC(n3cnnc3)CC2)cc1F` (single isomer, unassigned) [Example 259, 5-[2-Fluoro-4-(4-[1,2,4]triazol-4-yl-piperidin-1-yl)-benzyl]-7-phenyl-6-thia-5-aza-spiro[2.5]octane 6,6-dioxide], the IC50 was 57 nM.
`CC(=O)N1CCN(c2ccc(CN3CCC(c4ccc(F)cc4)S3(=O)=O)c(F)c2)CC1` (centres unmarked) [Example 9, 1-(4-{3-Fluoro-4-[5-(4-fluoro-phenyl)-1,1-dioxo-isothiazolidin-2-ylmethyl]-phenyl}-piperazin-1-yl)-ethanone]: the IC50 came out at 7600 nM.
`C[C@H]1CCC(c2ccccc2)S(=O)(=O)N1Cc1ccc(N2CCC(c3nccn3C)CC2)cc1F` (single isomer, unassigned) [Example 140]: the IC50 amounted to 410 nM.
For the compound `C[C@H]1CCC(c2ccccc2)S(=O)(=O)N1Cc1ccc(N2CCC(c3cn[nH]c3)CC2)cc1F` (single isomer, unassigned) [Example 243], the IC50 came to 3 nM.
As for `CC(=O)N1CCN(c2ccc(CN3CCC(C)CC(c4ccccc4)S3(=O)=O)c(F)c2)CC1` (single isomer, unassigned) [Example 333, 1-{4-[3-Fluoro-4-(5-methyl-1,1-dioxo-7-phenyl-[1,2]thiazepan-2-ylmethyl)-phenyl]-piperazin-1-yl}-ethanone], the IC50 is 32 nM.
Still for that read-out and setting: then `C[C@H]1CCC(c2ccccc2)S(=O)(=O)N1Cc1ccc(C(=O)N2CCS(=O)(=O)CC2)cc1` (stereo partly drawn) [Example 398, (1,1-Dioxo-1-thiomorpholin-4-yl)-[4-((3S)-methyl-1,1-dioxo-6-phenyl-[1,2]thiazinan-2-ylmethyl)-phenyl]-methanone], with 5710 nM.
Turning to `CC(=O)N1CCN(c2ccc(CN3CCOCC(c4ccccc4)S3(=O)=O)c(F)c2)CC1` (centres unmarked) [Example 21, 1-{4-[4-(4,4-Dioxo-3-phenyl-[1,4,5]oxathiazepan-5-ylmethyl)-3-fluoro-phenyl]-piperazin-1-yl}-ethanone], the IC50 was found to be 209 nM.
Consider `C[C@H]1CCC(c2ccccc2)S(=O)(=O)N1Cc1ccc(N2CCC(c3ncon3)CC2)cc1F` (stereo partly drawn) [Example 235, 2-[2-Fluoro-4-(4-[1,2,4]oxadiazol-3-yl-piperidin-1-yl)-benzyl]-(3S)-methyl-6-phenyl-[1,2]thiazinane 1,1-dioxide], for which the IC50 worked out at 40 nM.
For `CC(=O)N1CCN(c2ccc(CN3C(C)CCCC(c4ccccc4)S3(=O)=O)c(F)c2)CC1` (single isomer, unassigned) [Example 330, 1-{4-[3-Fluoro-4-(3-methyl-1,1-dioxo-7-phenyl-[1,2]thiazepan-2-ylmethyl)-phenyl]-piperazin-1-yl}-ethanone], the IC50 stood at 37 nM.
On the same count and under the same terms, then `CC(=O)N1CCN(c2ccc(CN3C[C@H](C)CC(c4ccccc4)S3(=O)=O)c(F)c2)CC1` (single isomer, unassigned) [Example 170], with 54 nM.
Consider `C[C@H]1CCC(c2ccccc2)S(=O)(=O)N1Cc1ccc(N[C@H]2CC[C@H](C#N)CC2)cc1F` (single isomer, unassigned) [Example 111], for which the IC50 was 49 nM.
The same measure, in the same setting: in the case of `C[C@H]1CCC(c2ccccc2)S(=O)(=O)N1Cc1ccc(C(=O)NCCC2CCCN(S(C)(=O)=O)C2)cc1` (stereo partly drawn) [Example 371, N-[2-(1-Methanesulfonyl-piperidin-3-yl)-ethyl]-4-((3S)-methyl-1,1-dioxo-6-phenyl-[1,2]thiazinan-2-ylmethyl)-benzamide] it was 3630 nM.
Still for that read-out and setting: in the case of `C[C@H]1CCC(c2ccccc2)S(=O)(=O)N1Cc1ccc(N2CCCN(C(=O)CC#N)CC2)cc1F` (single isomer, unassigned) [Example 82] it was 22 nM; in that of `C[C@H]1CCC(c2ccccc2)S(=O)(=O)N1Cc1ccc(N2CCN(C(=O)C3CC3)CC2)cc1F` (single isomer, unassigned) [Example 58], 14 nM; in that of `C[C@H]1CCC(c2ccccc2)S(=O)(=O)N1Cc1ccc(C(=O)N2CCCC2CCNS(C)(=O)=O)cc1` (stereo partly drawn) [Example 357, N-(2-{1-[4-((3S)-Methyl-1,1-dioxo-6-phenyl-[1,2]thiazinan-2-ylmethyl)-benzoyl]-pyrrolidin-2-yl}-ethyl)-methanesulfonamide], 108 nM.
Same read-out and setting: in the case of `C[C@H]1CCC(c2ccccc2)S(=O)(=O)N1Cc1ccc(N2CCN(C(=O)C3CC3)CC2)cc1` (single isomer, unassigned) [Example 61] it was 61 nM; in that of `C[C@H](O)C(=O)N1C[C@H]2C[C@@H]1CN2c1ccc(CN2[C@@H](C)CCC(c3ccccc3)S2(=O)=O)c(F)c1` (single isomer, unassigned) [Example 183], 40 nM; in that of `C[C@H]1CCC(c2ccccc2)S(=O)(=O)N1Cc1ccc(N2CCN(C(=O)CCC#N)CC2)cc1F` (single isomer, unassigned) [Example 72], 64 nM.
For `CC(=O)N1CCN(c2ccc(CN3[C@@H](C)CCC(c4ccccc4)S3(=O)=O)c(F)c2)C[C@@H]1C#N` (stereo partly drawn) [Example 376, (R)-1-Acetyl-4-[3-fluoro-4-((3S)-methyl-1,1-dioxo-6-phenyl-[1,2]thiazinan-2-ylmethyl)-phenyl]-piperazine-2-carbonitrile], the IC50 worked out at 78 nM.
Turning to `CC(=O)N1CCN(c2ccc(CN3CC4(CC4)CC(c4ccccc4)S3(=O)=O)c(F)c2)CC1` (single isomer, unassigned) [Example 196, 1-{4-[4-(6,6-Dioxo-7-phenyl-6-thia-5-aza-spiro[2.5]oct-5-ylmethyl)-3-fluoro-phenyl]-piperazin-1-yl}-ethanone], the IC50 was 192 nM.
Regarding `CC(=O)N1CCN(c2ccc(CN3CCCCC(c4ccccc4)S3(=O)=O)c(F)c2)[C@@H](C)C1` (single isomer, unassigned) [Example 341, 1-{4-[4-(1,1-Dioxo-7-phenyl-[1,2]thiazepan-2-ylmethyl)-3-fluoro-phenyl]-3-methyl-piperazin-1-yl}-ethanone], the IC50 worked out at 26 nM.
Still for that read-out and setting: then `CNC(=O)[C@@H]1CN(c2ccc(CN3[C@@H](C)CCC(c4ccccc4)S3(=O)=O)c(F)c2)CCN1C(C)=O` (stereo partly drawn) [Example 380, (S)-1-Acetyl-4-[3-fluoro-4-((3S)-methyl-1,1-dioxo-6-phenyl-[1,2]thiazinan-2-ylmethyl)-phenyl]-piperazine-2-carboxylic acid methylamide], with 138 nM; and `CC(=O)N1CCN(c2ccc(CN3[C@@H](C)CCC(c4ccccc4)S3(=O)=O)c(F)c2)C[C@@H]1C(N)=O` (stereo partly drawn) [Example 375, (R)-1-Acetyl-4-[3-fluoro-4-((3S)-methyl-1,1-dioxo-6-phenyl-[1,2]thiazinan-2-ylmethyl)-phenyl]-piperazine-2-carboxylic acid amide], with 156 nM.
On the same count and under the same terms, then `COC(=O)[C@@H]1CN(c2ccc(CN3[C@@H](C)CCC(c4ccccc4)S3(=O)=O)c(F)c2)CCN1C(C)=O` (stereo partly drawn) [Example 382, (S)-1-Acetyl-4-[3-fluoro-4-((3S)-methyl-1,1-dioxo-6-phenyl-[1,2]thiazinan-2-ylmethyl)-phenyl]-piperazine-2-carboxylic acid methyl ester], with 34 nM; and `CO[C@@H](C)C(=O)N1CCN(c2ccc(CN3[C@@H](C)CCC(c4ccccc4)S3(=O)=O)c(F)c2)CC1` (single isomer, unassigned) [Example 76], with 31 nM; and `C[C@H]1CCC(c2ccccc2)S(=O)(=O)N1Cc1ccc(OC2CCN(S(C)(=O)=O)CC2)cc1` (single isomer, unassigned) [Example 45], with 22 nM.

The experiment is the same for the next values; noted with them: RORc IC50.
Turning to `O=S1(=O)[C@H](c2ccccc2)CCC2(CC2)N1Cc1ccc(N2CCC(n3cnnc3)CC2)cc1F` [Example 421, (S)-4-[2-Fluoro-4-(4-[1,2,4]triazol-4-yl-piperidin-1-yl)-benzyl]-6-phenyl-5-thia-4-aza-spiro[2.5]octane 5,5-dioxide], the half-inhibitory concentration (IC50) was found to be 289 nM.

The same experiment, now with this note: read-out: RORc IC50.
As to `C[C@H]1CCC(c2ccccc2)S(=O)(=O)N1Cc1ccc(OC2CCOC2)cc1` (stereo partly drawn) [Example 447, (3S)-Methyl-6-phenyl-2-[4-(tetrahydro-furan-3-yloxy)-benzyl]-[1,2]thiazinane 1,1-dioxide], the IC50 amounted to 268 nM.
`COC(=O)[C@H]1CN(C(C)=O)CCN1c1ccc(CN2[C@@H](C)CCC(c3ccccc3)S2(=O)=O)c(F)c1` (stereo partly drawn) [Example 416, (R)-4-Acetyl-1-[3-fluoro-4-((3S)-methyl-1,1-dioxo-6-phenyl-[1,2]thiazinan-2-ylmethyl)-phenyl]-piperazine-2-carboxylic acid methyl ester]: the IC50 was determined as 368 nM.
Turning to `C[C@H]1CCC(c2ccccc2)S(=O)(=O)N1Cc1ccc(N2CCC(n3ncnn3)CC2)cc1` (stereo partly drawn) [Example 423, (3S)-Methyl-6-phenyl-2-[4-(4-tetrazol-2-yl-piperidin-1-yl)-benzyl]-[1,2]thiazinane 1,1-dioxide], the IC50 is 177 nM.
Still for that read-out and setting: in the case of `CC(=O)N1CCC(C(=O)Nc2ccc(CN3[C@@H](C)CCC(c4ccccc4)S3(=O)=O)c(F)c2)CC1` (stereo partly drawn) [Example 457, 1-Acetyl-piperidine-4-carboxylic acid [3-fluoro-4-((3S)-methyl-1,1-dioxo-6-phenyl-[1,2]thiazinan-2-ylmethyl)-phenyl]-amide] it was 437 nM.

The term IC50 denotes the concentration needed to halve the response being measured.
